These results are taken from ChEMBL document CHEMBL1153168, “3D QSAR studies on 3,4-dihydroquinazolines as T-type calcium channel blocker by comparative molecular similarity indices analysis (CoMSIA)” (Bioorg Med Chem Lett, 2010).

The structures appear in SMILES notation.

The target in the assay is Voltage-dependent T-type calcium channel subunit alpha-1G (Homo sapiens, UniProt O43497). The assay can be described thus: Inhibition of human T-type calcium channel alpha1G in HEK293 cells. Type of assay: cell-based.
Chain of Voltage-dependent T-type calcium channel subunit alpha-1G (O43497 whole entry): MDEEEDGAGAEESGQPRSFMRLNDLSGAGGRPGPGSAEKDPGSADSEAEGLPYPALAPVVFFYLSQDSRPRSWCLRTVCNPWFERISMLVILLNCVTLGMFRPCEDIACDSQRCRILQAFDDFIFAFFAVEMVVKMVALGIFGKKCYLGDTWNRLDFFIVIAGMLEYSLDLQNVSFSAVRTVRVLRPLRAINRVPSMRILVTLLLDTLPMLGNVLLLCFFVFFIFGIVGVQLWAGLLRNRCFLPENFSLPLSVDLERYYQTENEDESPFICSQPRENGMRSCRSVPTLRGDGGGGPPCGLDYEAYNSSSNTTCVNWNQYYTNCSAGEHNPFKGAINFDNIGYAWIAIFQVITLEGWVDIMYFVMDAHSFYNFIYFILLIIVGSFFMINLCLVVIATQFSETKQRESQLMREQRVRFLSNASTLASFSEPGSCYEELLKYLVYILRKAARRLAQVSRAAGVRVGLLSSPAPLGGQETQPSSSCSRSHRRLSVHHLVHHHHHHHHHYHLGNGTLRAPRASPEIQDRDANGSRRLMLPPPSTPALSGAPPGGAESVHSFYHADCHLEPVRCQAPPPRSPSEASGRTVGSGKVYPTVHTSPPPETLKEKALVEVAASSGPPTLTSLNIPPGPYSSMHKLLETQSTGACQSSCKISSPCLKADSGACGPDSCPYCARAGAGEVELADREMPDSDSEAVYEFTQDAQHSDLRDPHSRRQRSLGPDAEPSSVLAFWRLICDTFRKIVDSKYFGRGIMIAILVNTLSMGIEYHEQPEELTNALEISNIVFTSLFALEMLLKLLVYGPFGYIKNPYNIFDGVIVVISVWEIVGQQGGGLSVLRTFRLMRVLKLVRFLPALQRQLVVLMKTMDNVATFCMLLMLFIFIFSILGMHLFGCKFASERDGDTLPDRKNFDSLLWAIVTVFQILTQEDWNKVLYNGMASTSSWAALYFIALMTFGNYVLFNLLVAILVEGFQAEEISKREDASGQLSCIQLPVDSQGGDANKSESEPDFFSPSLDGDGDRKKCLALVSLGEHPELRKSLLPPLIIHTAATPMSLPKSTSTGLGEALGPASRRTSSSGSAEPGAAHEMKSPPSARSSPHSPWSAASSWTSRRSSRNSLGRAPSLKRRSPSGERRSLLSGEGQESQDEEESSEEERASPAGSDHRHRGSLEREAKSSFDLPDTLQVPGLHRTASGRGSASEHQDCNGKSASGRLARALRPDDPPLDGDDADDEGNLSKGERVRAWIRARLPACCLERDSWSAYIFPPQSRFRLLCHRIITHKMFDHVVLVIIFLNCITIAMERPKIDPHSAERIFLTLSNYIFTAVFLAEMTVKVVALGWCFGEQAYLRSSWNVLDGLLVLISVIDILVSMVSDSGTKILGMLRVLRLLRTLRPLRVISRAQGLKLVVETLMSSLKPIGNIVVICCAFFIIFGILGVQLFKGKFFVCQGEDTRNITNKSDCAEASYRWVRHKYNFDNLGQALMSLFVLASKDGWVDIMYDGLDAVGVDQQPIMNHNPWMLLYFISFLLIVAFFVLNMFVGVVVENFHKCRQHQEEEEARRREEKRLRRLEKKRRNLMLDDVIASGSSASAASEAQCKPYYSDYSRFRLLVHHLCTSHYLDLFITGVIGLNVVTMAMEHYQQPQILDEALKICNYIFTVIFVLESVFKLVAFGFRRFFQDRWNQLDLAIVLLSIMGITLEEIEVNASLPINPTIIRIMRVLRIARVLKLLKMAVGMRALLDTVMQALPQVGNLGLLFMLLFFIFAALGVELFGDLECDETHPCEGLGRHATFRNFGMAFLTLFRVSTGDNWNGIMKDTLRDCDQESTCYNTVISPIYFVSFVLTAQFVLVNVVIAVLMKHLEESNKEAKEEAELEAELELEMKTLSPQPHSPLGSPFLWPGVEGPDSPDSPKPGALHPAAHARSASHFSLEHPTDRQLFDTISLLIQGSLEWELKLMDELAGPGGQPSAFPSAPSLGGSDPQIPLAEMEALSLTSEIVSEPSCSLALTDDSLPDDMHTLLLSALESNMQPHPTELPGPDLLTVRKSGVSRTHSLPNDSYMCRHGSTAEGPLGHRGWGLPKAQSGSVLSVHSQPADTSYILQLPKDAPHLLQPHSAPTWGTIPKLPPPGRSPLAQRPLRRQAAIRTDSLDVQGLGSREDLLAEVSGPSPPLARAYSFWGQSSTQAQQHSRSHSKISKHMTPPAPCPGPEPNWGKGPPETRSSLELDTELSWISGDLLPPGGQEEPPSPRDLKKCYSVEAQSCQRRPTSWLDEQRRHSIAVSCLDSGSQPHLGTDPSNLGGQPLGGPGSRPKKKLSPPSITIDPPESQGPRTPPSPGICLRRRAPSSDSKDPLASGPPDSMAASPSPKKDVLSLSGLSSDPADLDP
In general, IC50 refers to the concentration that inhibits the measured activity by half. In the case of `Nc1ccc(CNC(=O)CC2c3ccccc3N=C(N3CCCCC3)N2c2ccccc2)cc1` (stereo not drawn), the IC50 is 13000 nM.

In the case of `CCN1C(N(C)C)=Nc2ccccc2C1CC(=O)NCc1ccc(NS(=O)(=O)c2ccc(C)cc2)cc1` (stereo not drawn), the IC50 is 1120 nM.

`CCN1C(N(C)C)=Nc2ccccc2C1CC(=O)NCc1ccc(NS(=O)(=O)c2ccc(F)cc2)cc1` (stereo not drawn): the half-maximal inhibitory concentration (IC50) was 4100 nM.

As for `O=C(CC1c2ccccc2N=C(N2CCCCC2)N1c1ccccc1)NCc1ccc([N+](=O)[O-])cc1` (stereo not drawn), the IC50 is 2340 nM.

Regarding `CCN1C(N2CCCCC2)=Nc2ccccc2C1CC(=O)NCc1ccccc1` (stereo not drawn), the IC50 was 4580 nM.

In the case of `CCN1C(N(C)C)=Nc2ccccc2C1CC(=O)NCc1ccccc1` (stereo not drawn), the IC50 is 24200 nM.

As to `COC(=O)CC1c2ccccc2N=C(Nc2ccccc2)N1CCCCCNC(=O)OC(C)(C)C` (stereo not drawn), the IC50 was 2270 nM.

Turning to `CCN1C(N2CCCCC2)=Nc2ccccc2C1CC(=O)NCc1ccc([N+](=O)[O-])cc1` (stereo not drawn), the IC50 was 869 nM.

On to `COC(=O)CC1c2ccccc2N=C(Nc2ccccc2)N1CCCCCN` (stereo not drawn), for which the IC50 was 9160 nM.

Consider `NCCCCCNC1=Nc2ccccc2C(CC(=O)NCc2ccccc2)N1c1ccccc1` (stereo not drawn), for which the IC50 was 3130 nM.

`CCN1C(N(C)C)=Nc2ccccc2C1CC(=O)NCc1ccc([N+](=O)[O-])cc1` (stereo not drawn): the IC50 was 2170 nM.

In the case of `CC(C)(C)OC(=O)NCCCCCN1C(Nc2ccccc2)=Nc2ccccc2C1CC(=O)NCc1ccccc1` (stereo not drawn), the IC50 is 1200 nM.

As to `COC(=O)CC1c2ccccc2N=C(NCCCCCN)N1c1ccccc1` (stereo not drawn), the IC50 is 1840 nM.

For `COC(=O)CC1c2ccccc2N=C(NCCCCCNC(=O)OC(C)(C)C)N1c1ccccc1` (stereo not drawn), the IC50 is 2020 nM.

Turning to `CN(C)C1=Nc2ccccc2C(CC(=O)NCc2ccc(NS(=O)(=O)c3ccc(F)cc3)cc2)N1c1ccccc1` (stereo not drawn), the IC50 is 430 nM.

As for `O=C(CC1c2ccccc2N=C(N2CCCCC2)N1c1ccccc1)NS(=O)(=O)c1cccs1` (stereo not drawn), the IC50 is 1010 nM.

As to `CCN1C(N(C)C)=Nc2cc(N)ccc2C1CC(=O)NCc1ccc(N)cc1` (stereo not drawn), the 50% inhibitory concentration (IC50) is 12700 nM.

Consider `NCCCCCN1C(Nc2ccccc2)=Nc2ccccc2C1CC(=O)NCc1ccccc1` (stereo not drawn), for which the IC50 was 4540 nM.
